According to the CombiSolv-Exp solvation set (Vermeire and Green 2021):

Test: solvent given as SMILES

c1ccc2c(c1)Nc1ccccc1S2
solvation free energy, 298 K (in C1CCOC1): -14.7 kcal/mol | solvation free energy, 298 K (in C1COCCO1): -14.4 kcal/mol | solvation free energy, 298 K (in CC(C)(C)O): -12.7 kcal/mol | solvation free energy, 298 K (in CC(C)CC(C)(C)C): -10.9 kcal/mol | solvation free energy, 298 K (in CC(C)CC(C)O): -12.6 kcal/mol | solvation free energy, 298 K (in CC(C)CCO): -12.8 kcal/mol | solvation free energy, 298 K (in CC(C)CO): -12.6 kcal/mol | solvation free energy, 298 K (in CC(C)O): -12.8 kcal/mol | solvation free energy, 298 K (in CC(C)OC(C)C): -12.8 kcal/mol | solvation free energy, 298 K (in CCC(C)CO): -12.7 kcal/mol | solvation free energy, 298 K (in CCC(C)O): -12.8 kcal/mol | solvation free energy, 298 K (in CCCC(C)CO): -12.8 kcal/mol | solvation free energy, 298 K (in CCCC(C)O): -12.8 kcal/mol | solvation free energy, 298 K (in CCCCC(CC)CO): -12.7 kcal/mol | solvation free energy, 298 K (in CCCCCC): -11.1 kcal/mol | solvation free energy, 298 K (in CCCCCCC): -11.2 kcal/mol | solvation free energy, 298 K (in CCCCCCCC): -11.2 kcal/mol | solvation free energy, 298 K (in CCCCCCCCCC): -11.2 kcal/mol | solvation free energy, 298 K (in CCCCCCCCCCO): -13 kcal/mol | solvation free energy, 298 K (in CCCCCCCCO): -13.1 kcal/mol | solvation free energy, 298 K (in CCCCCCCO): -13.1 kcal/mol | solvation free energy, 298 K (in CCCCCCO): -13.1 kcal/mol | solvation free energy, 298 K (in CCCCCO): -13.1 kcal/mol | solvation free energy, 298 K (in CCCCO): -13.1 kcal/mol | solvation free energy, 298 K (in CCCCOCCCC): -12.7 kcal/mol | solvation free energy, 298 K (in CCCO): -13.1 kcal/mol | solvation free energy, 298 K (in CCCOC(C)=O): -13.9 kcal/mol | solvation free energy, 298 K (in CCO): -13.2 kcal/mol | solvation free energy, 298 K (in CCOCC): -13.5 kcal/mol | solvation free energy, 298 K (in CO): -13.1 kcal/mol | solvation free energy, 298 K (in COC(C)(C)C): -13.4 kcal/mol

CCCCCCCC(=O)c1c(C)[nH]n(-c2ccccc2)c1=O
solvation free energy, 298 K (in O): -8.85 kcal/mol

CC(C)[N+](=O)[O-]
solvation free energy, 298 K (in CCCCCCC): -3.81 kcal/mol | solvation free energy, 298 K (in ClC(Cl)(Cl)Cl): -4.57 kcal/mol | solvation free energy, 298 K (in O): -3.13 kcal/mol | solvation free energy, 298 K (in c1ccccc1): -5.07 kcal/mol

CCOP(=S)(OCC)SCSP(=S)(OCC)OCC
solvation free energy, 298 K (in O): -6.1 kcal/mol

CC=CCC
solvation free energy, 298 K (in CN(C)C=O): -2.46 kcal/mol

c1ccc2c(c1)sc1ccccc12
solvation free energy, 298 K (in CC(=O)N(C)C): -11.5 kcal/mol | solvation free energy, 298 K (in CCCCCCCCC=CCCCCCCCC(=O)OCC(COC(=O)CCCCCCCC=CCCCCCCCC)OC(=O)CCCCCCCC=CCCCCCCCC): -10.6 kcal/mol | solvation free energy, 298 K (in CN1CCCC1=O): -11.6 kcal/mol | solvation free energy, 298 K (in O): -4.05 kcal/mol

CNC=O
solvation free energy, 298 K (in C1CCCCC1): -3.86 kcal/mol | solvation free energy, 298 K (in CC(C)=O): -7.35 kcal/mol | solvation free energy, 298 K (in CCCCCCC): -3.68 kcal/mol | solvation free energy, 298 K (in O): -8.87 kcal/mol

CC(C)CCCCCOC(=O)c1ccccc1C(=O)OCCCCCC(C)C
solvation free energy, 298 K (in O): -6.43 kcal/mol

C=C(C)C1CCC2(CO)CCC3(C)C(CCC4C5(C)CCC(O)C(C)(C)C5CCC43C)C12 (centres undefined)
solvation free energy, 298 K (in CC(C)=O): -27.9 kcal/mol | solvation free energy, 298 K (in CCCCCCO): -27.3 kcal/mol | solvation free energy, 298 K (in CCCCCO): -27.6 kcal/mol | solvation free energy, 298 K (in CCCCO): -28 kcal/mol | solvation free energy, 298 K (in CCCO): -27.8 kcal/mol | solvation free energy, 298 K (in CCO): -27.7 kcal/mol | solvation free energy, 298 K (in CCOC(C)=O): -27.8 kcal/mol | solvation free energy, 298 K (in CO): -27.3 kcal/mol | solvation free energy, 298 K (in COC(C)=O): -27.4 kcal/mol | solvation free energy, 298 K (in ClC(Cl)Cl): -28.4 kcal/mol | solvation free energy, 298 K (in ClCCl): -27.7 kcal/mol | solvation free energy, 298 K (in O): -14.2 kcal/mol

CCCCCBr
solvation free energy, 298 K (in O): -0.1 kcal/mol

CCCC(=O)OCC
solvation free energy, 298 K (in CCCCCCCC): -4.69 kcal/mol | solvation free energy, 298 K (in CCCCCCCCCCCCCCCC): -4.54 kcal/mol | solvation free energy, 298 K (in CCCCCCCCO): -4.86 kcal/mol | solvation free energy, 298 K (in CN1CCCC1=O): -4.9 kcal/mol | solvation free energy, 298 K (in O): -2.52 kcal/mol | solvation free energy, 298 K (in O=CN1CCOCC1): -4.61 kcal/mol | solvation free energy, 298 K (in [2H]O[2H]): -2.59 kcal/mol

CC(C(=O)O)c1ccc(-c2ccccc2)c(F)c1 (centres undefined)
solvation free energy, 298 K (in C1COCCO1): -16.2 kcal/mol | solvation free energy, 298 K (in CC(C)=O): -16.1 kcal/mol | solvation free energy, 298 K (in CCCCCCCO): -15.6 kcal/mol | solvation free energy, 298 K (in CCCCCCO): -15.6 kcal/mol | solvation free energy, 298 K (in CCCCCO): -15.7 kcal/mol | solvation free energy, 298 K (in CCCCO): -15.7 kcal/mol | solvation free energy, 298 K (in CCCO): -15.8 kcal/mol | solvation free energy, 298 K (in CCO): -15.9 kcal/mol | solvation free energy, 298 K (in CCOC(C)=O): -15.9 kcal/mol | solvation free energy, 298 K (in CO): -15.9 kcal/mol | solvation free energy, 298 K (in O): -8.42 kcal/mol

NCCc1ccccc1
solvation free energy, 298 K (in C=CCCCCCCC=C): -7.41 kcal/mol | solvation free energy, 298 K (in O): -6.56 kcal/mol

CCCCCCCCCOC(=O)c1ccccc1C(=O)OCCCC
solvation free energy, 298 K (in O): -6.67 kcal/mol

CC(=O)Nc1ccccc1
solvation free energy, 298 K (in C1COCCO1): -11.8 kcal/mol | solvation free energy, 298 K (in O): -9.79 kcal/mol

CCCCCCCCCC(C)C
solvation free energy, 298 K (in O): 4.04 kcal/mol

CCCC=CC=O
solvation free energy, 298 K (in O): -3.68 kcal/mol

COc1cc(C2c3cc4c(cc3C(O)C3COC(=O)C23)OCO4)cc(OC)c1OC (centres undefined)
solvation free energy, 298 K (in CC(C)O): -25.1 kcal/mol | solvation free energy, 298 K (in CCO): -25.3 kcal/mol

CC(=O)c1c(C)[nH]n(-c2ccccc2)c1=O
solvation free energy, 298 K (in O): -9.89 kcal/mol

Brc1ccccc1
solvation free energy, 298 K (in C1CCOC1): -6.45 kcal/mol | solvation free energy, 298 K (in C1COCCO1): -6.45 kcal/mol | solvation free energy, 298 K (in CCCCCC): -5.66 kcal/mol | solvation free energy, 298 K (in CCCCCCC): -5.72 kcal/mol | solvation free energy, 298 K (in CCCCCCCCCC): -5.43 kcal/mol | solvation free energy, 298 K (in CCCCCCCCCCCCCCCC): -5.47 kcal/mol | solvation free energy, 298 K (in CN(C)C=O): -6.21 kcal/mol | solvation free energy, 298 K (in COCCO): -5.73 kcal/mol | solvation free energy, 298 K (in ClC(Cl)(Cl)Cl): -6.23 kcal/mol | solvation free energy, 298 K (in NC=O): -4.11 kcal/mol | solvation free energy, 298 K (in O): -1.46 kcal/mol | solvation free energy, 298 K (in OCCO): -4.42 kcal/mol

CCCCCO
solvation free energy, 298 K (in Brc1ccccc1): -5.42 kcal/mol | solvation free energy, 298 K (in C1CCOC1): -6.61 kcal/mol | solvation free energy, 298 K (in CC#N): -5.85 kcal/mol | solvation free energy, 298 K (in CC(C)(C)O): -6.96 kcal/mol | solvation free energy, 298 K (in CC(C)CC(C)(C)C): -4.37 kcal/mol | solvation free energy, 298 K (in CC(C)CO): -6.85 kcal/mol | solvation free energy, 298 K (in CC(C)O): -6.83 kcal/mol | solvation free energy, 298 K (in CCCCCC): -4.62 kcal/mol | solvation free energy, 298 K (in CCCCCCC): -4.48 kcal/mol | solvation free energy, 298 K (in CCCCCCCC): -4.27 kcal/mol | solvation free energy, 298 K (in CCCCCCCCCC): -4.16 kcal/mol | solvation free energy, 298 K (in CCCCCCCCCCCCCCCC): -4.08 kcal/mol | solvation free energy, 298 K (in CCCCCCCCCCO): -6.39 kcal/mol | solvation free energy, 298 K (in CCCCCCCCO): -6.37 kcal/mol | solvation free energy, 298 K (in CCCCCCO): -6.68 kcal/mol | solvation free energy, 298 K (in CCCCO): -6.77 kcal/mol | solvation free energy, 298 K (in CCCO): -6.78 kcal/mol | solvation free energy, 298 K (in CO): -6.84 kcal/mol | solvation free energy, 298 K (in Cc1cccc(C)c1): -5.21 kcal/mol | solvation free energy, 298 K (in Cc1ccccc1C): -5.21 kcal/mol | solvation free energy, 298 K (in Clc1ccccc1): -5.48 kcal/mol | solvation free energy, 298 K (in NC=O): -5.65 kcal/mol | solvation free energy, 298 K (in O): -4.56 kcal/mol | solvation free energy, 298 K (in [2H]O[2H]): -4.61 kcal/mol
